In US20090271892A1, “LYSOPHOSPHATIDIC ACID ACYLTRANSFERASE GENES AND USES THEREOF” (priority 2006, published 2009):
Residue numbers refer to the chain shown, from its start. Read-outs that look alike come from different tables or passages of the source. Each block holds one molecule with its values, some of them ahead of it.

Assays:
[1] = molecular target: Litchi sinensis LPAAT (LsLPAAT) (Litchi chinensis, UniProt A0A346D9Z1); assay: Competitive LPAAT assay using C18:1-CoA and C19CA-CoA; assay type: biochemical
Sequence of Litchi sinensis LPAAT (LsLPAAT) (A0A346D9Z1 entry or part of it): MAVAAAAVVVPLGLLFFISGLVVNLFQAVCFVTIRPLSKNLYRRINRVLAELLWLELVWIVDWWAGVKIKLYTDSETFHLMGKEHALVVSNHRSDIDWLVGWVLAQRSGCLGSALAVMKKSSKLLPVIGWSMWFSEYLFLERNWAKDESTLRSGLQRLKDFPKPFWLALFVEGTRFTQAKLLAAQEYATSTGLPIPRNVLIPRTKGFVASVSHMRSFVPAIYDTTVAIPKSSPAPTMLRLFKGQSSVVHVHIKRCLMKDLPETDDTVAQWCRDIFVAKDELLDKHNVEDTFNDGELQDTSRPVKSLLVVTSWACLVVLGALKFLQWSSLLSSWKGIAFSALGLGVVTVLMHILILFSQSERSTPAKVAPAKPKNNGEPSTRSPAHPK
Description: (§1) The ^3H-oleoyl-lysophosphatidic acid (^3HLPA, ref. NET1100; 600 μM, 28 mCi mmol^−1) and ^14C-Oleoyl-CoA (^14CC18:1-CoA, ref. NET651A; 300 μM, 11 mCi mmol^−1) radio-labeled substrates were purchased from Perkin Elmer. Assays were carried out in a final volume of 300 μl and contained Tris/HCl (100 mM, pH7.5), Triton X-100 (0.01% w/v), BSA (1 mg/ml), ascorbic acid (10 mM), EDTA (2 mM), 100 μl LPA and 50 μl acyl-CoA. The reaction was started by the addition of 30 μl of microsomes, and conducted in a glass vial placed in a Eppendorf Thermomixer-compact apparatus (30° C., 350 rpm). The reaction was stopped after incubation (from 0 to 120 min) by addition of 720 μl of chloroform/methanol (1:1). To separate the phases, 280 μl of 1M KCl in 0.2 M H3PO4 were added and the whole mixture was vortexed for 10 s before centrifugation at 1300 g, 5 min at room temperature. The upper aqueous phase was discarded and 2×25 μl of the remaining organic phase was spotted on to silica gel 60 ÅF254 TLC plates (ref. 1.05715, Merck) and developed in chloroform/methanol/NH4OH/water (65:25:0.9:3). The phosphatidic acid spot was visualized by iodine revelation and collected for scintillation counting.
(§2) Radioactivity measurement was performed in 10 mL Ultimagold (ref. 6013329, Perkin Elmer) using a liquid scintillation analyzer (Tri-Carb 2100TR, Packard) for determination of ^3H and ^14C separately.
(§3) […] For all experimental conditions, data are derived from three experiments with 4 replicates each.
(§4) LPAAT selectivity for the two substrates is calculated as follows:
(§5) Selectivity for C18:1-CoA: S^C18:1-CoA=^14C/^3H
(§6) Selectivity for C19CA-CoA: S^C19:1CA-CoA=(^3H—^14C)/^3H
(§7) in which, ^3H and ^14C are the molar quantity of produced PA and the molar quantity of ^14C18:1 incorporated into this PA. These molar quantities are calculated from the corresponding ^3H and ^14C radioactivity levels measured in the phosphatidic acid spots scraped from TLC plates. Selectivity is expressed as the fraction of the specific fatty acid incorporated out of the total incorporated at the sn-2 position.

[2] = molecular target: Brassica napus LPAAT (BnLPAAT) (Brassica napus, UniProt Q9XFW4); assay: as above; assay type: biochemical
Description: as §1, §2, §3, §4, §5, §6, §7

[3] = substrate: CCCCCCCC/C=C\CCCCCCCC(=O)SCCNC(=O)CCNC(=O)[C@H](O)C(C)(C)COP(=O)(O)OP(=O)(O)OC[C@H]1O[C@@H](n2cnc3c(N)ncnc32)[C@H](O)[C@@H]1OP(=O)(O)O; assay: LPAAT assay, kinetic parameters with C18:1-CoA, E. coli JC201 microsomes; assay type: biochemical, Brassica napus; settings: other: C18:1-CoA 0-50 μM, 10 min, 30° C., pH7.5, N = 3, pH 7.5
Description: FIG. 1: Kinetics of phosphatidic acid synthesis using ^14C-C18:1-CoA on ^3H-LPA as substrates and Brassica napus (SEQ ID No 5) and Litchi microsomal (SEQ ID NO 1) LPAATs as enzymes. Duplicate measurements for one experiment are shown.
The following experiments were performed with the Escherichia coli JC201 mutant strain, which is temperature conditional in endogenous LPAAT activity and able to grow at 30° C. but not at 44° C. (genotype plsC, described in Coleman, 1990 J. Biol. Chem., 265 (28), 17215-21.). These bacteria were kept at −80° C. as 1 ml glycerol stocks. For E. coli JC201 transformation, one glycerol stock was diluted in 15 mL of Luria-Bertani (ref. L3022, Sigma) liquid medium and cultivated overnight at 30° C. Then, 1 mL was used to inoculate flasks containing 15 mL of fresh liquid LB medium. Optical density was measured at 600 nm and each flask was then cultivated for 6 hours at 30 and 44° C. respectively in order to check by optical density measurement that bacterial growth occurs at 30° C. but not at 44° C. One of the cultures obtained at 30° C. was then centrifuged at 4500 g/4° C. for 10 min. Supernatant was discarded and the pellet was kept on ice for 2 hours. The pellet was washed three time with 15 mL sterile distilled water and then twice with 15 mL distilled sterile water containing 10% (weight/volume) glycerol (centrifugation condition: 4500 g/4° C./10 min). […]

[4] = Competitive LPAAT assay using C18:1-CoA and C19CA-CoA; assay type: biochemical; settings: for use of C19CA-CoA as substrate: competitive assays using C19CA-CoA and C18:1-CoA
Description: as §1, §2, §3, §4, §5, §6, §7

[5] = LPAAT assay with C18:1-CoA as substrate (microsomes of transformed E. coli); assay type: biochemical; settings: expressed in transformed E. coli mutant strains; FIG. 1
Description: The ^3H-oleoyl-lysophosphatidic acid (^3HLPA, ref. NET1100; 600 μM, 28 mCi mmol^−1) and ^14C-Oleoyl-CoA (^14CC18:1-CoA, ref. NET651A; 300 μM, 11 mCi mmol^−1) radio-labeled substrates were purchased from Perkin Elmer. Assays were carried out in a final volume of 300 μl and contained Tris/HCl (100 mM, pH7.5), Triton X-100 (0.01% w/v), BSA (1 mg/ml), ascorbic acid (10 mM), EDTA (2 mM), 100 μl LPA and 50 μl acyl-CoA. The reaction was started by the addition of 30 μl of microsomes, and conducted in a glass vial placed in a Eppendorf Thermomixer-compact apparatus (30° C., 350 rpm). The reaction was stopped after incubation (from 0 to 120 min) by addition of 720 μl of chloroform/methanol (1:1). […]
as §2
A first LPAAT assay was performed as described above in order to determine optimal LPAAT activity using ^14CC18:1-CoA as substrate: • Effect of incubation time was tested for 0, 1, 3, 5, 10, 30, 60 and 120 min with 50 μM ^14CC18:1-CoA at 30° C. • In order to determine LPAAT kinetic parameters, the effect of C18:1-CoA concentration was tested as described above. […] For all experimental conditions, the mean of 2 values is calculated. […]

[6] = substrate: CCCCCCCC/C=C\CCCCCCCC(=O)SCCNC(=O)CCNC(=O)[C@H](O)C(C)(C)COP(=O)(O)OP(=O)(O)OC[C@H]1O[C@@H](n2cnc3c(N)ncnc32)[C@H](O)[C@@H]1OP(=O)(O)O; assay: LPAAT assay, kinetic parameters with C18:1-CoA, E. coli JC201 microsomes; assay type: biochemical, Litchi sinensis; settings: other: C18:1-CoA 0-50 μM, 10 min, 30° C., pH7.5, N = 5, pH 7.5
Description: The inventors have identified one putative Lysophosphatidic Acid-Acyl Transferase from Lychee (SEQ ID No 2). They also have obtained a mutated protein derived from this protein, which is depicted as SEQ ID No 1.
Plasmids pEW108 and 117 comprising genes coding for SEQ ID No 1 and SEQ ID No 2 respectively under the control of the araBAD promoter (Guzman, L-M. et al. (1995) J Bacteriology 177: 4121-4130) were prepared and used to transform and complement an E. coli strain. The araBAD promoter is induced by arabinose, repressed by glucose and is used in the art to express polynucleotides in a controlled manner.
The following experiments were performed with the Escherichia coli JC201 mutant strain, which is temperature conditional in endogenous LPAAT activity and able to grow at 30° C. but not at 44° C. (genotype plsC, described in Coleman, 1990 J. Biol. Chem., 265 (28), 17215-21.). These bacteria were kept at −80° C. as 1 ml glycerol stocks. For E. coli JC201 transformation, one glycerol stock was diluted in 15 mL of Luria-Bertani (ref. L3022, Sigma) liquid medium and cultivated overnight at 30° C. […] Optical density was measured at 600 nm and each flask was then cultivated for 6 hours at 30 and 44° C. respectively in order to check by optical density measurement that bacterial growth occurs at 30° C. but not at 44° C. […]

[7] = 50 μM C18:1-CoA, 25 μM C19CA, fraction of total incorporated at sn-2, read-out: Selectivity for C19CA-CoA in competition with C18:1-CoA
[8] = 50 μM C18:1-CoA, 50 μM C19CA, fraction of total incorporated at sn-2, read-out: Selectivity for C19CA-CoA in competition with C18:1-CoA
[9] = average over the concentrations, read-out: Average selectivity for C19CA-CoA in competition with C18:1-CoA

selectivity ratio ([1]; 25 μM C18:1-CoA, 10 μM C19CA, fraction of total incorporated at sn-2, read-out: Selectivity for C19CA-CoA in competition with C18:1-CoA): 0.15
selectivity ratio ([1]; 25 μM C18:1-CoA, 25 μM C19CA, fraction of total incorporated at sn-2, read-out: Selectivity for C19CA-CoA in competition with C18:1-CoA): 0.34
selectivity ratio [1, 7]: 0.28
selectivity ratio [1, 8]: 0.35
selectivity ratio [1, 9]: 0.377 ± 0.101
Fatty acids incorporated at the sn-2 position being 19:0CA ([1]; in competition with C18:1-CoA, even at low total concentrations of acyl-CoA): up to 35%
selectivity ratio [2, 7]: 0.01
selectivity ratio [2, 8]: 0.19
selectivity ratio [2, 9]: 0.054 ± 0.057
Molecule: CCCCCCCCC1CC1CCCCCCCC(=O)SCCNC(=O)CCNC(=O)[C@H](O)C(C)(C)COP(=O)(O)OP(=O)(O)OC[C@H]1O[C@@H](n2cnc3c(N)ncnc32)[C@H](O)[C@@H]1OP(=O)(O)O (stereo partly drawn) [C19CA-CoA]

B1: Brassica napus LPAAT (BnLPAAT, RAT1), SEQ ID No 5 (Brassica napus) (protein)
chain: MAMAAAVIVPLGILFFISGLVVNLLQAVCYVLVRPLSKNTYRKINRVVAETLWLELVWIVDWWAGVKIQVFADDETFNRMGKEHALVVCNHRSDIDWLVGWILAQRSGCLGSALAVMKKSSKFLPVIGWSMWFSEYLFLERNWAKDESTLKSGLQRLNDFPRPFWLALFVEGTRFTEAKLKAAQEYAASSELPVPRNVLIPRTKGFVSAVSNMRSFVPAIYDMTVAIPKTSPPPTMLRLFKGQPSVVHVHIKCHSMKDLPESEDEIAQWCRDQFVTKDALLDKHIAADTFAGQKEQNIGRPIKSLAVVLSWACLLTLGAMKFLHWSNLFSSWKGIALSALGLGIITLCMQILIRSSQSERSTPAKVAPAKPKDNHQSGPSSQTEVEEKQK
Km [3]: 10.6 ± 6.7 µM
Vmax [3]: 0.0056 µmol/min/mg
use of C19CA-CoA as substrate [4]: can use C19CA-CoA as substrate
selectivity for C19CA-CoA (in words) ([4]; very little incorporation of 19:0CA up to 50 μM): very low selectivity
esterification of 14C-C18:1-CoA on 3H-LPA (presence of PA in lipid fraction) [5]: fully functional

B2: Litchi sinensis LPAAT (LsLPAAT, pEW117), SEQ ID No 2 (Litchi chinensis) (protein)
chain: MAVAAAAVVVPLGLLFFISGLVVNLFQAVCFVTIRPLSKNLYRRINRVLAELLWLELVWIVDWWAGVKIKLYTDSETFHLMGKEHALVVSNHRSDIDWLVGWVLAQRSGCLGSALAVMKKSSKLLPVIGWSMWFSEYLFLERNWAKDESTLRSGLQRLKDFPKPFWLALFVEGTRFTQAKLLAAQEYATSTGLPIPRNVLIPRTKGFVASVSHMRSFVPAIYDTTVAIPKSSPAPTMLRLFKGQSSVVHVHIKRCLMKDLPETDDTVAQWCRDIFVAKDELLDKHNVEDTFNDGELQDTSRPVKSLLVVTSWACLVVLGALKFLQWSSLLSSWKGIAFSALGLGVVTVLMHILILFSQSERSTPAKVAPAKPKNNGEPSTRSQDKQK
Km [6]: 3.6 ± 1.7 µM
Vmax [6]: 0.000115 µmol/min/mg

B3: LsLPAAT: L. sinensis LPAAT; clone not stated in Table 2, probably pEW108 / SEQ ID No 1 (protein)
chain: B2 chain with Q383P, D384A, K385H, Q386P
modifications: synthetic LPAAT derived from litchi
use of C19CA-CoA as substrate [4]: can use C19CA-CoA as substrate
esterification of 14C-C18:1-CoA on 3H-LPA (presence of PA in lipid fraction) [5]: fully functional
